According to patent publication US20210169911A1, “PURINE AND PYRIMIDINE NUCLEOTIDES AS ECTO-5'-NUCLEOTIDASE INHIBITORS” (The United States of America,as represented by the …, priority 2018, published 2021):
Where a name gives a salt, the structure may show the parent alone. Read-outs that look alike come from different tables or passages of the source.

How the values were obtained:
[1] = target: T1, recombinant soluble human CD73 (Homo sapiens, UniProt P21589); assay: Radiometric CD73 inhibition assay, recombinant soluble human CD73; format: biochemical; conditions: Table 6; for Ki: human soluble CD73, read-out: Ki at hCD73
T1 construct: 6xHis (C); secretion signal peptide of vector pACGP67B (N); made in house; host or cells: Sf9 insect cells (baculovirus)
T1 sequence (P21589 28-549): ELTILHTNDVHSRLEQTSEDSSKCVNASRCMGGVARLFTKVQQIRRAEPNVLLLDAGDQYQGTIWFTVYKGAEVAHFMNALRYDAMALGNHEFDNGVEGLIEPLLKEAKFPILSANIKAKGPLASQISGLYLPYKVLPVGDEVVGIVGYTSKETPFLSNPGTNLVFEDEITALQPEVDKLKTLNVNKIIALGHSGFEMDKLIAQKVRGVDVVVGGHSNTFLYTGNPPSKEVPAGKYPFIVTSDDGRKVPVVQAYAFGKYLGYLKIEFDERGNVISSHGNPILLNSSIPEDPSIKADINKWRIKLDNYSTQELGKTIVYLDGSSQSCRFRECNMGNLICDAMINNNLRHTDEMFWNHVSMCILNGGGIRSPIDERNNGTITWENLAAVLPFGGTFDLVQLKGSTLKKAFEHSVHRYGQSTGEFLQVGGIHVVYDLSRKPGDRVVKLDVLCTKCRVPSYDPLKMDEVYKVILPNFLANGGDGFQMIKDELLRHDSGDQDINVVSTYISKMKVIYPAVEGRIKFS
Method: (§1) The cDNA for the soluble human CD73 (Genbank accession no. NM_002526) was obtained from Prof. Dr. Norbert Sträter (University of Leipzig, Germany) (3). […] Sf9 insect cells were grown in Insect-[…] media (#: BE12-[…], Lonza, Switzerland) with 10 mg/l gentamicin and split at a ratio of 1:3 every fourth day. For transfection, cells were seeded into cell culture flasks (25 cm^2) at 60-70% confluence. 100 μl of cell medium and 1 μl of the vector DNA (1000 ng/μ1) were mixed with 2.5 μl of baculovirus genomic ProEasyTM vector DNA (AB vector, CA, USA) and combined with premixed 100 μl of cell medium and 8 μl of CellfectinTM II Reagent (Thermo Fisher Scientific, MA, USA). […] The cells were incubated for 30 min at rt, and for further 4 days at 27° C. Cells from the transfection procedure were detached from the bottom of the flasks and centrifuged for 5 min at 2000 g. 1.5 ml of the supernatant (viral stock) was added to 75 cm^2 cell culture flasks containing Sf9 cells (60-70% confluence), and the cells were incubated for four days at 27° C. Then 1.5 ml of the supernatant were taken and added to uninfected Sf9 cells in a 75 cm^2 flask. This was repeated five more times, using more cells and larger flasks after the third round of infections (150 cm^2 to which 3.0 ml of supernatant were added). The stock P8 was finally used for infection of the cells. For protein expression, 3 ml of the virus solution were used to infect 150 ml of cell media containing 2×10^6 cells/ml in a 500 ml Erlenmeyer flask, and they were incubated for 4 days at 27° C. with shaking (150 rpm). Then, cell suspensions were transferred to 50 ml falcon tubes and centrifuged at 15 min at 5000 g at 4° C. The supernatants were subjected to ultrafiltration using Amicon® Ultra-15, 10 kDa cut-off (Merck Millipore, MA, USA) at 5000 g for 15-30 min at 4° C. The concentrated protein was purified with HisPurTM Ni^2+-NTA spin columns (#: 88226, Thermo Fisher Scientific, MA, USA). The elution of the columns was performed as recommended in the instruction manual with adjusting the incubation time for protein binding to 1 h at 4° C. with an end-over-end mixer and an additional incubation step of 5 min with the elution buffer before eluting. Eluates were pooled and dialyzed (Membra-Cer, 14 kDa cut-off, 250 mm×44 mm×0.02 mm; Carl Roth, Germany) at 4° C. in 25 mM Tris, pH 7.4, with a volume adjusted to 40 times the volume of the elution fraction. […] The enzyme was aliquoted and stored at -80° C. until use.

[2] = target: T2, recombinant soluble rat CD73 (Rattus norvegicus, UniProt P21588); assay: Radiometric rat ecto-5′-nucleotidase (CD73) assay with [3H]AMP; conditions: for % inhibition at indicated concentration, rat CD73: initial screening concentration 1 μM
T2 sequence (P21588 29-551 limits assumed): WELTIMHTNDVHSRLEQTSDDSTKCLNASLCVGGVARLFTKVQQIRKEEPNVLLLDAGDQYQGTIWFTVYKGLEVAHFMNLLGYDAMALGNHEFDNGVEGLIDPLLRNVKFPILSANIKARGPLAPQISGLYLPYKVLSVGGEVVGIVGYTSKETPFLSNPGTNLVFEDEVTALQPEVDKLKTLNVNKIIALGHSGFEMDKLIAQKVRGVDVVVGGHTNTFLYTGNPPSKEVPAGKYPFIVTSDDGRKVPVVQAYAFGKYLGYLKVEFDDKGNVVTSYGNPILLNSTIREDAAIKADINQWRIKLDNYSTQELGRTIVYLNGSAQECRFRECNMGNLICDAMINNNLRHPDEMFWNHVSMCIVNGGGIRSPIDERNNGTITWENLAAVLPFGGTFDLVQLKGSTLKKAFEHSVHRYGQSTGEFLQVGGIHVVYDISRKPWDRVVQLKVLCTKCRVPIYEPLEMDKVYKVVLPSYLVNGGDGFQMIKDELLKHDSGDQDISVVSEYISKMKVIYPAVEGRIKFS
Method: After the enzymatic reaction, the substrate was separated from its product [2,8-^3H]adenosine by precipitation with lanthanum chloride followed by filtration through glass fiber filters (34). […] Ki values were calculated from the obtained IC50 values using the Cheng-Prusoff equation (6,7).
The assay was performed as previously described (41) using recombinant rat CD73 expressed in Sf9 insect cells (33). […] The mixture was incubated for 25 min at 37° C. The reaction was stopped by adding 500 μL of ice-cooled precipitation buffer containing 100 mM aqueous lanthanum chloride and 100 mM aqueous sodium acetate solution (pH 4.0). After 30 min, the precipitation was filtered through GF/B glass fiber filters (M-48, Brandel, Gaithersburg, Md., USA). After washing three times, 4 mL of the scintillation cocktail ULTIMA Gold XR was added and then quantified by scintillation counting (TRICARB 2900 TR, Packard/PerkinElmer). Three separate inhibition assays were performed in triplicate, concentration-response curves were fitted, and Ki values were calculated.
The assay was performed essentially as previously described.^D Stock solutions (10 mM) of the compounds were prepared in demineralized water and further dilutions were performed in assay reaction buffer (25 mM Tris, 140 mM sodium chloride, 25 mM sodium dihydrogen phosphate, pH 7.4). 10 μL of the inhibitor solution were added to 70 μL of assay reaction buffer. […] The enzymatic reaction was performed for 25 min at 37° C. in a shaking water bath. […] After the precipitation was completed (after at least 30 min on ice), the mixture was separated by filtration through GF/B glass fiber filters using a cell harvester (M-48, Brandel, Gaitherburg, Md., USA). After washing each reaction vial three times with 400 μl of cold (4° C.) demineralized water, 5 ml of the scintillation cocktail (ULTIMA Gold XR, PerkinElmer, MA, USA) was added and radioactivity was measured by scintillation counting (TRICARB 2900 TR, Packard/PerkinElmer; counting efficacy: 49-52%). Two controls were included and measured as duplicates. One reaction was performed without the inhibitor resulting in 100% enzyme activity (positive control) and one was incubated without the inhibitor and the enzyme and served as background control. The resulting data were subtracted from the background and were normalized with to the positive control. The results were plotted, and concentration-inhibition curves were fitted with GraphPad Prism 5 (GraphPad Software, La Jolla, USA).
After 30 min, the precipitation was filtered through GF/B glass fiber filters (M-48, Brandel, Gaithersburg, Md., USA). After washing three times, 4 mL of the scintillation cocktail ULTIMA Gold XR was added and then quantified by scintillation counting (TRICARB 2900 TR, Packard/PerkinElmer). Three separate inhibition assays were performed in triplicate, concentration-response curves were fitted, and K, values were calculated.

[3] = Stability in aqueous solution; format: physicochemical; conditions: decomposes to UOPCP (4a)
Method: Cytidine derivatives varying at the 2′-position (7a and 7b), as well as at the 5-position (7c-e), were prepared as depicted in Scheme 2. […] The required nucleosides were prepared by either reacting cytidine (6a), 2′-deoxycytidine (6b), 5-fluorocytidine (6d) or 5-methylcytidine (6e) with respective alkoxyamino derivatives in pyridine^8 followed by phosphonylation reaction to afford compounds 9a-f, or by reacting cytidine (6a) with benzyloxyamine, followed by nucleophilic substitution at the 3-position and subsequent 5′-O-phosphonylation of the nucleosides to afford compounds 9h and 9i (Scheme 2). Furthermore, 3-deazauridine-5′-α,β-methylene-diphosphate (10), (S)-methanocarba-5′-α,β-methylene-diphosphate (11) and the ethyl ester of 2-thio-UDP (12) (7) were prepared to extend the exploration of SARs of the nucleotide analogs as CD73 inhibitors. All phosphonate-substituted nucleotides were purified to homogeneity by ion exchange chromatography followed by reverse phase C18 HPLC.

[4] = test system: recombinant soluble human CD73; assay: Radiometric CD73 inhibition assay, recombinant soluble human CD73; format: biochemical; conditions: human vs rat CD73 Ki, Table 5
Method: as §1

[5] = read-out: Ki ± SEM (nM), rat CD73, Table 3, recombinant soluble rat CD73, 5 μM [3H]AMP

Compound | Ki [1] [nM] | Ki [2, 5] [nM] | further results
(((((2R,3S,4R,5S)-4-((Z)-4-(((4-Chlorobenzyl)oxy)imino)-3-methyl-2-oxo-3,4-dihydropyrimidin-1(2H)-yl)-2,3-dihydroxy-1V-bicyclo[3.1.0]hexan-1-yl)methoxy)(hydroxy)phosphoryl)methyl)phosphonic Acid Triethylammonium Salt [Compound 122] | 59.2 ± 5.58 |  | 
Cn1c(=O)n([C@@H]2O[C@H](COP(=O)(O)CP(=O)(O)O)[C@@H](O)[C@H]2O)cc/c1=N/OCc1cccc(Cl)c1 [Compound 106, N^4-(3-Chlorobenzyloxy)-3-methylcytidine-5′-α,β-methylenediphosphate triethylammonium salt] | 1.61 ± 0.09 |  | 
Nc1ncnc2c1ncn2[C@@H]1O[C@H](COP(=O)(O)CP(=O)(O)O)[C@@H](O)[C@H]1O [I, reference compound] |  | 167 ± 53 | 
O=C(Nc1ccn([C@@H]2O[C@H](COP(=O)(O)CP(=O)(O)O)C(O)C2O)c(=O)n1)c1ccccc1 (stereo partly shown) [Compound 7f, 4-Benzoylcytidine-5′-O-[(phosphonomethyl)phosphonic acid]] |  |  | decomposition in aqueous solution [3]: rapid decomposition; decomposition in aqueous solution ([3]; listed as 71): decomposition in aqueous solution
C#Cc1ccc(CO/N=c2/ccn([C@@H]3O[C@H](COP(=O)(O)CP(=O)(O)O)[C@@H](O)[C@H]3O)c(=O)n2C)cc1 [Compound 114, N^4-(4-Ethynylbenzyloxy)-3-methyleytidine-5′-α,β-methylenediphosphate triethylammonium salt] | 0.664 ± 0.089 |  | 
Nc1nccc2c1ncn2[C@@H]1O[C@H](COP(=O)(O)CP(=O)(O)O)[C@@H](O)[C@H]1O [Compound 2f, 3-Deazaadenosine-5′-O-[(phosphonomethyl)phosphonic acid]] |  | > 1000 | % inhibition at indicated concentration, rat CD73 ([2]; Table 3): 36%
Nc1ccnc2c1ncn2[C@@H]1O[C@H](COP(=O)(O)CP(=O)(O)O)[C@@H](O)[C@H]1O [Compound 2e, 1-Deazaadenosine-5′-O-[(phosphonomethyl)phosphonic acid]] |  | > 1000 | % inhibition at indicated concentration, rat CD73 ([2]; Table 3): 36%
O=c1[nH]c(=NOCc2ccccc2)c(F)cn1C1OC(COP(=O)(O)CP(=O)(O)O)C(O)C1O (stereo not shown) [Compound 9g, N^4-[O-(4-Benzyloxy)]-5-fluoro-cytidine-5′-O-[(phosphonomethyl)phosphonic acid]] |  |  | potency at human CD73 as compared to the rat enzyme [4]: 5 fold
CCN(CC)CC.CCN(CC)CC.O=c1ccn([C@H]2[C@H](O)[C@H](O)C3(COP(=O)(O)CP(=O)(O)O)C[C@H]23)c(=O)[nH]1 (stereo partly drawn) [Compound 121, (((((2R,3S,4R,5S)-4-(2,4-Dioxo-3,4-dihydropyrimidin-1(2H)-yl)-2,3-dihydroxy-1λ^5-bicyclo[3.1.0]hexan-1-yl)methoxy)(hydroxy)phosphoryl)methyl)phosphonic Acid Triethylammonium Salt] |  |  | inhibition of hCD73 ([1]; at 50 μM): 35% inhibition
Cn1c(=O)n([C@@H]2O[C@H](COP(=O)(O)CP(=O)(O)O)[C@@H](O)[C@H]2O)cc/c1=N/OCc1cccc(C(F)(F)F)c1 [Compound 107, N^4-((3-Trifluoromethyl)benzyloxy)-3-methyleytidine-5′-α,β-methylenediphosphate triethylammonium salt] | 1.44 ± 0.09 |  | 
Cn1c(=O)n([C@@H]2O[C@H](COP(=O)(O)CP(=O)(O)O)[C@@H](O)[C@H]2O)cc/c1=N/OCc1ccc(-c2cn(CCF)nn2)cc1 [Compound 120, N^4-(4-(1-(2-Fluoroethyl)-1H-1,2,3-triazol-4-yl)benzyloxy)-3-methylcytidine-5′-α,β-methylenediphosphate triethylammonium salt] | 0.627 ± 0.099 |  | 
Nc1ncnc2c1ccn2[C@@H]1O[C@H](COP(=O)(O)CP(=O)(O)O)[C@@H](O)[C@H]1O [Compound 2g, 7-Deazaadenosine-5′-O-[(phosphonomethyl)phosphonic acid]] |  | 88.6 ± 4 | 
CCn1c(=O)n([C@@H]2O[C@H](COP(=O)(O)CP(=O)(O)O)[C@@H](O)[C@H]2O)cc/c1=N/OCc1ccccc1 [Compound 9i, N^4-[O-(4-Benzyloxy)]-3-ethyl-cytidine-5′-O-[(phosphonomethyl)phosphonic acid]] |  |  | Ki [2]: 262 ± 46 nM
